# Measured values: patent US9630956B2, “Compounds useful as inhibitors of ATR kinase” (Vertex Pharmaceuticals Incorporated, priority 2010, dated 2017)
# Where two headings read alike, the source gives them in different places.
# Assays:
# [1] = test system: HCT116 colorectal cancer cells; experiment: Cisplatin Sensitization Assay (96h cell viability MTS); assay type: cell-based; conditions: concentration of compound required to reduce the IC50 of Cisplatin alone by at least 3-fold, 96h MTS
# Description: Compounds can be screened for their ability to sensitize HCT116 colorectal cancer cells to Cisplatin using a 96h cell viability (MTS) assay. […] Compounds and Cisplatin are then both added simultaneously to the cell media in 2-fold serial dilutions from a top final concentration of 10 μM as a full matrix of concentrations in a final cell volume of 200 μl, and the cells are then incubated at 37° C. in 5% CO2. After 96h, 40 μl of […] (Promega G358a) is added to each well and the cells are incubated for 1 h at 37° C. in 5% CO2.
# full-length ATR = full-length ATR (Homo sapiens (Human), UniProt Q13535); experiment: ATR Inhibition Assay (radioactive-phosphate incorporation); assay type: biochemical
# Chain of full-length ATR (Q13535 whole entry): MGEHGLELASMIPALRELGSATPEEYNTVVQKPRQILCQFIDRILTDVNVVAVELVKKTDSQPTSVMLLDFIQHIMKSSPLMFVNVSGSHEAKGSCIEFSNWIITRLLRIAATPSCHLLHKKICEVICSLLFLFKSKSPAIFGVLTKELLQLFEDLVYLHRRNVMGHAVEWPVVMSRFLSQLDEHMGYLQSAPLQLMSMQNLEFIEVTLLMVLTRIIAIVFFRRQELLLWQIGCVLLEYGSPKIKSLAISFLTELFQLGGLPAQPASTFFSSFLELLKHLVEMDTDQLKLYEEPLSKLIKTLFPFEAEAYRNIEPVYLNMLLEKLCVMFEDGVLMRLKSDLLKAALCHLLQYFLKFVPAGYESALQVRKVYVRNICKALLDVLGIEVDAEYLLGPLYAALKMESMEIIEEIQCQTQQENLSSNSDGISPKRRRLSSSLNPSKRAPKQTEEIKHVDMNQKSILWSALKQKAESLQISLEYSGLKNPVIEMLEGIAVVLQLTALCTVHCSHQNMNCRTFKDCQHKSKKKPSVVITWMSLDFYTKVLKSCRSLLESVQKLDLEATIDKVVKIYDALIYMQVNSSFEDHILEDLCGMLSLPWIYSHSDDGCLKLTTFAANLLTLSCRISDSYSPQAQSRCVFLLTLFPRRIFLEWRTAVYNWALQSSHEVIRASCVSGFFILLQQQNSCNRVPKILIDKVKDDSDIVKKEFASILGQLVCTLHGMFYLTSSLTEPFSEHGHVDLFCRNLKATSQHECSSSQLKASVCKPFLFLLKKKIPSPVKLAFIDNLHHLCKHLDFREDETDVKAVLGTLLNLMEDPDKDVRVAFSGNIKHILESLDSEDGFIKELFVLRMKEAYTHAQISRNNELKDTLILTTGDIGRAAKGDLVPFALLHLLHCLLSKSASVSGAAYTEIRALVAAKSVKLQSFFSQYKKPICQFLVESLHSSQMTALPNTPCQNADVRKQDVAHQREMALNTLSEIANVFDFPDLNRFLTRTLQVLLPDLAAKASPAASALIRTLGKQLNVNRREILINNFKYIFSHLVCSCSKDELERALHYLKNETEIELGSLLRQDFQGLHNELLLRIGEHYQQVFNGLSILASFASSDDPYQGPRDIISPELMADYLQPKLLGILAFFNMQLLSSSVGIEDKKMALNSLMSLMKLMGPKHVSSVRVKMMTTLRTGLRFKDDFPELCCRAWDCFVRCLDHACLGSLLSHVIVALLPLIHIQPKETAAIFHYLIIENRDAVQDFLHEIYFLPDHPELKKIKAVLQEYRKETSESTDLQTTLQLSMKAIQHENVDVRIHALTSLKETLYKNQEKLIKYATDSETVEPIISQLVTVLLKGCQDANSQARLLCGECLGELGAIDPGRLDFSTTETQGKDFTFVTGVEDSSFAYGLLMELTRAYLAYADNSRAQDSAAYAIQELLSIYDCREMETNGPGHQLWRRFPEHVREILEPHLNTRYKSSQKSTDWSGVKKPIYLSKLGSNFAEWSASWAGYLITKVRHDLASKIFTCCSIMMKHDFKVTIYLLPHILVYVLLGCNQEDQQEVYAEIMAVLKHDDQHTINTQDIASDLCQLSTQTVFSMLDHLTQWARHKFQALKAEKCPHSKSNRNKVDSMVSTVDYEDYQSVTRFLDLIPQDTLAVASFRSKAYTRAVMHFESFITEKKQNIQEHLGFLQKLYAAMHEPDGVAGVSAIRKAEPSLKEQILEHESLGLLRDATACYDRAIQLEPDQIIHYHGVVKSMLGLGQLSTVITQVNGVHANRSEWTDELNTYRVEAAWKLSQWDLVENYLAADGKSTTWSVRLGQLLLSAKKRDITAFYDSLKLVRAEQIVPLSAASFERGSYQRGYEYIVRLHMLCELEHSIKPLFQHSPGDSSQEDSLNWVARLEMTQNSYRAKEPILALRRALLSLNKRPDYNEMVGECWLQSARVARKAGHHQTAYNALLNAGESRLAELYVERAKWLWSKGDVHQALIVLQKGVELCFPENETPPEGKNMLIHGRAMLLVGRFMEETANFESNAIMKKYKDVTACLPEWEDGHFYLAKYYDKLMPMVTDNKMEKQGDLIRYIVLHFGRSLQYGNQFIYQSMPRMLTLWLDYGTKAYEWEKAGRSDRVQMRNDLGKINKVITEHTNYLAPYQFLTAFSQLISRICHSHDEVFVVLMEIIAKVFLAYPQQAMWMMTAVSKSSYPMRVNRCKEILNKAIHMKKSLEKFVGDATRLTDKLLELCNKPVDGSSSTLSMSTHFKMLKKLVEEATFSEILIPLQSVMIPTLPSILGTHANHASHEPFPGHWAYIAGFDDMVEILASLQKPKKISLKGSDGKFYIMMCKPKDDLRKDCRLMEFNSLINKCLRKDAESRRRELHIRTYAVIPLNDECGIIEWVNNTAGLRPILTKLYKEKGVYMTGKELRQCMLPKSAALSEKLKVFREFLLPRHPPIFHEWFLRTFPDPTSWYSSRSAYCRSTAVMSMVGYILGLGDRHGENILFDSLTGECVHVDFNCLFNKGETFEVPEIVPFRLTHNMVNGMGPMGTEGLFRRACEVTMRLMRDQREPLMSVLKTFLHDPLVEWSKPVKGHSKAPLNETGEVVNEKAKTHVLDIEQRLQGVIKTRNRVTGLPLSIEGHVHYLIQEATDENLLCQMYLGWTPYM
# Description: Compounds were screened for their ability to inhibit ATR kinase using a radioactive-phosphate incorporation assay. Assays were carried out in a mixture of 50 mM Tris/HCl (pH 7.5), 10 mM MgCl2 and 1 mM DTT. Final substrate concentrations were 10 μM [γ-33P]ATP (3 mCi 33P ATP/mmol ATP, Perkin Elmer) and 800 μM target peptide ([…]).
# Assays were carried out at 25° C. in the presence of 5 nM full-length ATR. An assay stock buffer solution was prepared containing all of the reagents listed above, with the exception of ATP and the test compound of interest. 13.5 μL of the stock solution was placed in a 96 well plate followed by addition of 2 μL of DMSO stock containing serial dilutions of the test compound (typically starting from a final concentration of 15 μM with 3-fold serial dilutions) in duplicate (final DMSO concentration 7%). The plate was pre-incubated for 10 minutes at 25° C. and the reaction initiated by addition of 15 μL [γ-33P]ATP (final concentration 10 μM).
# The reaction was stopped after 24 hours by the addition of 30 μL 0.1 M phosphoric acid containing 2 mM ATP. A multiscreen phosphocellulose filter 96-well plate (Millipore, Cat no. MAPHNOB50) was pretreated with 100 μL 0.2M phosphoric acid prior to the addition of 45 μL of the stopped assay mixture. The plate was washed with 5×200 μL 0.2M phosphoric acid. After drying, 100 μL Optiphase ‘SuperMix’ liquid scintillation cocktail (Perkin Elmer) was added to the well prior to scintillation counting (1450 Microbeta Liquid Scintillation Counter, Wallac).
# After removing mean background values for all of the data points, Ki(app) data were calculated from non-linear regression analysis of the initial rate data using the Prism software package (GraphPad Prism version 3.0cx for Macintosh, GraphPad Software, San Diego Calif., USA).
# Below is a chart showing the ATR Inhibition Ki values of compounds of the disclosure.
# [2] = ATR Inhibition Ki(app), 10 μM ATP, 800 μM target peptide, 5 nM full-length ATR, 25° C.
SMILES,Ki (full-length ATR; [2]) [nM],Ki (full-length ATR) [nM],CP3 shift [1] [µM]
CNCc1ccc(-c2nnc(-c3nc(-c4ccc(=O)n(C(C)C)c4)cnc3N)o2)cc1 [Compound I-3],5 to 50,–,0.234
"CNCc1cccc(-c2cc(-c3nc(-c4ccc(=O)n(C(C)C)c4)cnc3N)on2)c1 [Compound I-49, 5-(5-amino-6-(3-(3-((methylamino)methyl)phenyl)isoxazol-5-yl)pyrazin-2-yl)-1-isopropylpyridin-2(1H)-one]",–,5 to 50,0.625
CC(C)n1cc(-c2cnc(N)c(-c3cc(-c4ccc(CN[C@H]5CCOC5)cc4)no3)n2)ccc1=O [Compound I-58],–,–,0.312
CNCc1ccc(-c2cc(-c3nc(-c4ccc(=O)n(CCC#N)c4)cnc3N)on2)cc1 [Compound I-73],≤ 5,–,0.156
CCC(Cn1cc(-c2cnc(N)c(-c3cc(-c4ccc(CNC)cc4)no3)n2)ccc1=O)OC (centres unmarked) [Compound I-74],≤ 5,–,0.078
CC[C@H](C)CCn1cc(-c2cnc(N)c(-c3cc(-c4ccc(CNC)cc4)no3)n2)ccc1=O [Compound I-77],≤ 5,–,0.039
CNCc1ccc(-c2cc(-c3nc(-c4c[nH]c(=O)c(Br)c4)cnc3N)on2)cc1 [Compound I-78],≤ 5,–,0.625
CNCc1ccc(-c2cc(-c3nc(-c4ccc(=O)n(CC5(CO)CC5)c4)cnc3N)on2)cc1 [Compound I-80],≤ 5,–,0.078
CCn1cc(-c2cnc(N)c(-c3cc(-c4ccc(CNC)cc4)no3)n2)ccc1=O [Compound I-81],≤ 5,–,0.156
CCC(C)n1cc(-c2cnc(N)c(-c3cc(-c4ccc(CNC)cc4)no3)n2)ccc1=O (centres unmarked) [Compound I-82],≤ 5,–,0.079
CCC(CC)n1cc(-c2cnc(N)c(-c3cc(-c4ccc(CNC)cc4)no3)n2)ccc1=O [Compound I-83],≤ 5,–,0.02
CNCc1ccc(-c2cc(-c3nc(-c4ccc(=O)n(CC5CCCCO5)c4)cnc3N)on2)cc1 (centres unmarked) [Compound I-87],≤ 5,–,0.078
CCc1cc(-c2cnc(N)c(-c3cc(-c4ccc(CNC)cc4)no3)n2)c[nH]c1=O [Compound I-89],≤ 5,–,0.312
CNCc1ccc(-c2cc(-c3nc(-c4c[nH]c(=O)c(Cl)c4)cnc3N)on2)cc1 [Compound I-90],≤ 5,–,0.625
Nc1ncc(-c2ccc(=O)n(C3CCCC3)c2)nc1-c1cc(-c2ccc(CNC3CC3)cc2)no1 [Compound I-92],≤ 5,–,0.078
CCC(CC)n1cc(-c2cnc(N)c(-c3cc(-c4ccc(CNC5CC5)cc4)no3)n2)ccc1=O [Compound I-93],≤ 5,–,0.02
CCC(CC)n1cc(-c2cnc(N)c(-c3cc(-c4cccc(C(C)N)c4)no3)n2)ccc1=O (centres unmarked) [Compound I-94],≤ 5,–,0.007
CNCc1ccc(-c2cc(-c3nc(-c4ccc(=O)n(CCC5CC5)c4)cnc3N)on2)cc1 [Compound I-96],≤ 5,–,0.078
CC[C@H](C)Cn1cc(-c2cnc(N)c(-c3cc(-c4ccc(CNC)cc4)no3)n2)ccc1=O [Compound I-97],≤ 5,–,0.078
CNCc1ccc(-c2cc(-c3nc(-c4ccc(=O)n(C(C)C(=O)N5CCCC5)c4)cnc3N)on2)cc1 (centres unmarked) [Compound I-102],≤ 5,–,0.078
CC(N)c1cccc(-c2cc(-c3nc(-c4ccc(=O)n(CC5(C)CC5)c4)cnc3N)on2)c1 (centres unmarked) [Compound I-105],≤ 5,–,0.02
CC(N)c1cccc(-c2cc(-c3nc(-c4ccc(=O)n(CC5CC5C)c4)cnc3N)on2)c1 (centres unmarked) [Compound I-106],≤ 5,–,0.039
CNCc1ccc(-c2cc(-c3nc(-c4c[nH]c(=O)c(C5CCCC5)c4)cnc3N)on2)cc1 [Compound I-107],≤ 5,–,0.039
CCCC(CC)c1cc(-c2cnc(N)c(-c3cc(-c4ccc(CNC)cc4)no3)n2)c[nH]c1=O (centres unmarked) [Compound I-116],≤ 5,–,0.02
Nc1ncc(-c2c[nH]c(=O)c(C3CCCC3)c2)nc1-c1cc(-c2ccc(CNC3CC3)cc2)no1 [Compound I-119],≤ 5,–,0.156
CCCC(CC)c1cc(-c2cnc(N)c(-c3cc(-c4ccc(CNC5CC5)cc4)no3)n2)c[nH]c1=O (centres unmarked) [Compound I-120],≤ 5,–,0.078
CNCc1ccc(-c2cc(-c3nc(-c4ccc(=O)n(CCC5CCCC5)c4)cnc3N)on2)cc1 [Compound I-122],≤ 5,–,0.078
CNCc1ccc(-c2cc(-c3nc(-c4c[nH]c(=O)c(-c5ccccc5)c4)cnc3N)on2)cc1 [Compound I-123],≤ 5,–,0.078
CCC(C#N)(CC)n1cc(-c2cnc(N)c(-c3cc(-c4ccc(CNC5CC5)cc4F)no3)n2)ccc1=O [Compound I-135],–,–,0.01

# Further lines, with some results ahead:
Ki (full-length ATR; [2]) [nM],Ki (full-length ATR) [nM],SMILES,CP3 shift [1] [µM]
≤ 5,–,CNCc1ccc(-c2nnc(-c3nc(-c4ccc(=O)n(C(C)C)c4)cnc3N)o2)c(OC)c1 [Compound I-6],0.156
≤ 5,–,CNCc1ccc(-c2cc(-c3nc(-c4ccc(=O)n(C(C)C)c4)cnc3N)on2)cc1 [Compound I-11],0.156
≤ 5,–,CNCc1ccc(-c2cc(-c3nc(-c4ccc(=O)n(C(C)C#N)c4)cnc3N)on2)cc1 (centres unmarked) [Compound I-15],0.039
≤ 5,–,CNCc1ccc(-c2cc(-c3nc(-c4ccc(=O)n(C5CCC(C)C5)c4)cnc3N)on2)cc1 (centres unmarked) [Compound I-22],0.02
≤ 5,–,CNCc1ccc(-c2nnc(-c3nc(-c4ccc(=O)n(C5CCCC5)c4)cnc3N)o2)c(OC)c1 [Compound I-32],0.079
≤ 5,–,CNCc1ccc(-c2nnc(-c3nc(-c4ccc(=O)n(C(C)C5CC5)c4)cnc3N)o2)c(OC)c1 (centres unmarked) [Compound I-37],0.078
≤ 5,–,CC(N)c1cccc(-c2nnc(-c3nc(-c4ccc(=O)n(C(C)C)c4)cnc3N)o2)c1 (centres unmarked) [Compound I-42],0.156
≤ 5,–,CC(C)(C)NCc1ccc(-c2cc(-c3nc(-c4ccc(=O)n(C5CCCC5)c4)cnc3N)on2)cc1 [Compound I-50],0.312
≤ 5,–,CNCc1ccc(-c2cc(-c3nc(-c4ccc(=O)n(C(C)C5CC5)c4)cnc3N)on2)c(F)c1 (centres unmarked) [Compound I-54],0.039
≤ 5,–,CC(N)c1cccc(-c2cc(-c3nc(-c4ccc(=O)n(C(C)C)c4)cnc3N)on2)c1 (centres unmarked) [Compound I-55],0.039
≤ 5,–,"CC(N)c1cccc(-c2cc(-c3nc(-c4ccc(=O)n(C(C)C5CC5)c4)cnc3N)on2)c1 (centres unmarked) [Compound I-57, 5-(5-amino-6-(3-(3-(1-aminoethyl)phenyl)isoxazol-5-yl)pyrazin-2-yl)-1-(1-cyclopropylethyl)pyridin-2(1H)-one]",0.02
≤ 5,–,CC(C)NCc1ccc(-c2cc(-c3nc(-c4ccc(=O)n(C(C)C)c4)cnc3N)on2)cc1 [Compound I-60],0.312
≤ 5,–,CC(C)n1cc(-c2cnc(N)c(-c3cc(-c4ccc(CNC5CC5)cc4)no3)n2)ccc1=O [Compound I-61],0.078
≤ 5,–,CNCc1ccc(-c2cc(-c3nc(-c4ccc(=O)n(CC5CC5)c4)cnc3N)on2)cc1 [Compound I-62],0.078
≤ 5,–,CCNCc1ccc(-c2cc(-c3nc(-c4ccc(=O)n(C(C)C)c4)cnc3N)on2)cc1 [Compound I-63],0.156
≤ 5,–,CNCc1ccc(-c2cc(-c3nc(-c4ccc(=O)n(C(C)C)c4)cnc3N)on2)c(OC)c1 [Compound I-64],0.078
≤ 5,–,CNCc1ccc(-c2cc(-c3nc(-c4ccc(=O)n(CC5(C)CC5)c4)cnc3N)on2)cc1 [Compound I-68],0.039
≤ 5,–,CNCc1ccc(-c2cc(-c3nc(-c4ccc(=O)n(CC5CC5C)c4)cnc3N)on2)cc1 (centres unmarked) [Compound I-72],0.078
